Experiments:
[1] = molecular target: Protein cereblon/Kinesin-like protein KIF11 (Homo sapiens, UniProt P52732+Q96SW2); assay: PROTAC activity at CRBN/KSP in human HCT-116 cells assessed as induction of KSP degradation at 500 nM incubated for 48 hrs by Western blot analysis relative to control; type: cell-based
HCT-116 [2] = assay: Antiproliferative activity against human HCT-116 cells assessed as inhibition of cell proliferation measured after 72 hrs by CCK8 assay; type: functional, cell-based; details: HCT-116, 72 h
HCT-116 [3] = assay: PROTAC activity at VHL-L/KSP in human HCT-116 cells assessed as induction of KSP degradation at 500 nM incubated for 48 hrs by Western blot analysis relative to control; type: cell-based
HCT-116 [4] = assay: Induction of apoptosis in human HCT-116 cells assessed as necrotic cells at 100 nM incubated for 48 hrs by Annexin V-FITC/PI staining based flow cytometry analysis (reference value: 1.31 %); type: functional
HCT-116 [5] = assay: Induction of apoptosis in human HCT-116 cells assessed as viable cells at 100 nM incubated for 48 hrs by Annexin V-FITC/PI staining based flow cytometry analysis (reference value: 94.31 %); type: functional; details: read-out: Activity
HCT-116 [6] = assay: Induction of cell cycle arrest in human HCT-116 cells assessed as accumulation of cells at G2/M phase at 10 nM incubated for 24 hrs by RNase A/propidium iodide staining based flow cytometric analysis (reference value: 4.05 %); type: functional
A549 = assay: Antiproliferative activity against human A549 cells assessed as inhibition of cell proliferation measured after 72 hrs by CCK8 assay; type: functional, cell-based; details: A549, 72 h
HCT-116 [7] = assay: Induction of cell cycle arrest in human HCT-116 cells assessed as accumulation of cells at G1 phase at 10 nM incubated for 24 hrs by RNase A/propidium iodide staining based flow cytometric analysis (reference value: 93.11 %); type: functional
HCT-116 [8] = assay: Induction of apoptosis in human HCT-116 cells assessed as late apoptotic cells at 100 nM incubated for 48 hrs by Annexin V-FITC/PI staining based flow cytometry analysis (reference value: 1.36 %); type: functional
MCF7 = assay: Antiproliferative activity against human MCF7 cells assessed as inhibition of cell proliferation measured after 72 hrs by CCK8 assay; type: functional, cell-based; details: MCF7, 72 h
HCT-116 [9] = assay: Induction of cell cycle arrest in human HCT-116 cells assessed as accumulation of cells at S phase at 10 nM incubated for 24 hrs by RNase A/propidium iodide staining based flow cytometric analysis (reference value: 2.84 %); type: functional
[10] = molecular target: T1, Kinesin-like protein KIF11 (Homo sapiens, UniProt P52732); assay: Inhibition of KSP (unknown origin) ATPase activity preincubated for 30 mins followed by ATP addition and measured after 15 mins by Kinase-Glo Plus reagent based luminescence analysis
T1 sequence (P52732 whole entry): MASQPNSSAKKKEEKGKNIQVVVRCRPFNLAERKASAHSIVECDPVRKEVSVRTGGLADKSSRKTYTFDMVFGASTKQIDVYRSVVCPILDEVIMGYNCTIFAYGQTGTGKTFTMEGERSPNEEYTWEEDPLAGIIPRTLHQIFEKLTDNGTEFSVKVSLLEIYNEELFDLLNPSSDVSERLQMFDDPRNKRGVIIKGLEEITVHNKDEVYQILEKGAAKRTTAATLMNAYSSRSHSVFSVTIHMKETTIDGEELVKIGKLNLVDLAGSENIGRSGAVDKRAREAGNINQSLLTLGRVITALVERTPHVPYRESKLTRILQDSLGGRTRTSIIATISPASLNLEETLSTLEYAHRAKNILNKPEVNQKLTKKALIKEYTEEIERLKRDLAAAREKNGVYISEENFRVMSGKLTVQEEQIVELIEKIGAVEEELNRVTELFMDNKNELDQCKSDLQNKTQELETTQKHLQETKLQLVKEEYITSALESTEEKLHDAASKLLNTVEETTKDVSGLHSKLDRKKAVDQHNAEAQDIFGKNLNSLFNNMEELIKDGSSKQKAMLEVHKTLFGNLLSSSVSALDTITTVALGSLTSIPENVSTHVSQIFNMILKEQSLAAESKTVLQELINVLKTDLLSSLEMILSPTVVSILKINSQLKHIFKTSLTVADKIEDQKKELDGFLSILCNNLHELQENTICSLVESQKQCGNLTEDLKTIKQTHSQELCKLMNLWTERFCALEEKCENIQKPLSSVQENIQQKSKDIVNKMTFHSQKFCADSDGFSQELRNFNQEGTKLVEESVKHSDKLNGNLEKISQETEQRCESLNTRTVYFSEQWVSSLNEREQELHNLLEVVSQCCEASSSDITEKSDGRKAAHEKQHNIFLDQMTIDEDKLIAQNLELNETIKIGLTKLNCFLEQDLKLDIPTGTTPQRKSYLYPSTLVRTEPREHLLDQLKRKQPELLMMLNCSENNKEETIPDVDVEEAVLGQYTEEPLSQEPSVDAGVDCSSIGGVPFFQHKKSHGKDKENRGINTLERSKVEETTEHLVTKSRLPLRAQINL

HCT-116 [11] = assay: Induction of apoptosis in human HCT-116 cells assessed as early apoptotic cells at 100 nM incubated for 48 hrs by Annexin V-FITC/PI staining based flow cytometry analysis (reference value: 3.02 %); type: functional
MDA-MB-231 = assay: Antiproliferative activity against human MDA-MB-231 cells assessed as inhibition of cell proliferation measured after 72 hrs by CCK8 assay; type: functional, cell-based; details: MDA-MB-231, 72 h

Sequence of Protein cereblon/Kinesin-like protein KIF11 (Q96SW2 whole entry, looked up, one chain of several): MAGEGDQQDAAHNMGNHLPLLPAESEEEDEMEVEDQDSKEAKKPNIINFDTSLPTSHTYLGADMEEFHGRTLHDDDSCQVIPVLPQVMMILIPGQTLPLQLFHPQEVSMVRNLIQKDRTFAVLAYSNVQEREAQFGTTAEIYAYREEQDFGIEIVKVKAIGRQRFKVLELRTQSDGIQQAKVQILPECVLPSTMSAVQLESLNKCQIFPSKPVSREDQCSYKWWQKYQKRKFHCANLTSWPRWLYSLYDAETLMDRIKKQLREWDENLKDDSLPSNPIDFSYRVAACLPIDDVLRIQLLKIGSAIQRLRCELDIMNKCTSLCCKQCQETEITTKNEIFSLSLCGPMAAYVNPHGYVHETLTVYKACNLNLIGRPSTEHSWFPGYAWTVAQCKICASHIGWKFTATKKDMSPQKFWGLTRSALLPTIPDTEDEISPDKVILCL

COc1ccc(C2(SC[C@H](N)C(=O)NCCCCCCCCCCNc3ccc4c(c3)C(=O)N(C3CCC(=O)NC3=O)C4=O)c3ccccc3C=Cc3ccccc32)cc1 (stereo partly specified)
Activity [1]: 53.9% | IC50 (HCT-116 [2]): 51.3 nM

COc1ccc(C2(SC[C@H](N)C(=O)NCCCCCCC(=O)N[C@H](C(=O)N3C[C@H](O)C[C@H]3C(=O)NCc3ccc(-c4scnc4C)cc3)C(C)(C)C)c3ccccc3C=Cc3ccccc32)cc1
IC50 (HCT-116 [2]): 181 nM | Activity (HCT-116 [3]): 25.2%

COc1ccc(C2(SC[C@H](N)C(=O)NCCCCCCCCCCNc3cccc4c3C(=O)N(C3CCC(=O)NC3=O)C4=O)c3ccccc3C=Cc3ccccc32)cc1 (stereo partly specified)
Activity [1]: 60.1% | IC50 (HCT-116 [2]): 42.3 nM

COc1ccc(C2(SC[C@H](N)C(=O)NCCOCCOCCOCCNc3ccc4c(c3)C(=O)N(C3CCC(=O)NC3=O)C4=O)c3ccccc3C=Cc3ccccc32)cc1 (stereo partly specified)
Activity [1]: 40.6% | IC50 (HCT-116 [2]): 95.4 nM

COc1ccc(C2(SC[C@H](N)C(=O)NCCOCCOCCC(=O)N[C@H](C(=O)N3C[C@H](O)C[C@H]3C(=O)NCc3ccc(-c4scnc4C)cc3)C(C)(C)C)c3ccccc3C=Cc3ccccc32)cc1
IC50 (HCT-116 [2]): 158 nM | Activity (HCT-116 [3]): 34.5%

COc1ccc(C2(SC[C@H](N)C(=O)NCCOCCOCCOCCC(=O)N[C@H](C(=O)N3C[C@H](O)C[C@H]3C(=O)NCc3ccc(-c4scnc4C)cc3)C(C)(C)C)c3ccccc3C=Cc3ccccc32)cc1
IC50 (HCT-116 [2]): 165 nM | Activity (HCT-116 [3]): 32.1%

COc1ccc(C2(SC[C@H](N)C(=O)NCCOCCOCCNC(=O)COc3cccc4c3C(=O)N(C3CCC(=O)NC3=O)C4=O)c3ccccc3C=Cc3ccccc32)cc1 (stereo partly specified)
Activity [1]: 53.2% | IC50 (HCT-116 [2]): 42.2 nM

COc1ccc(C2(SC[C@H](N)C(=O)NCCOCCNC(=O)COc3cccc4c3C(=O)N(C3CCC(=O)NC3=O)C4=O)c3ccccc3C=Cc3ccccc32)cc1 (stereo partly specified)
Activity [1]: 60.1% | IC50 (HCT-116 [2]): 37.4 nM

COc1ccc(C2(SC[C@H](N)C(=O)NCCOCCOCCNc3ccc4c(c3)C(=O)N(C3CCC(=O)NC3=O)C4=O)c3ccccc3C=Cc3ccccc32)cc1 (stereo partly specified)
Activity [1]: 24.1% | IC50 (HCT-116 [2]): 235 nM

COc1ccc(C2(SC[C@H](N)C(=O)NCCCCCCNC(=O)COc3cccc4c3C(=O)N(C3CCC(=O)NC3=O)C4=O)c3ccccc3C=Cc3ccccc32)cc1 (stereo partly specified)
Activity [1]: 52.5% | IC50 (HCT-116 [2]): 52.9 nM

COc1ccc(C2(SC[C@H](N)C(=O)NCCOCCOCCOCCNC(=O)COc3cccc4c3C(=O)N(C3CCC(=O)NC3=O)C4=O)c3ccccc3C=Cc3ccccc32)cc1 (stereo partly specified)
Activity [1]: 28.3% | IC50 (HCT-116 [2]): 206 nM

COc1ccc(C2(SC[C@H](N)C(=O)NCCCCC(=O)N[C@H](C(=O)N3C[C@H](O)C[C@H]3C(=O)NCc3ccc(-c4scnc4C)cc3)C(C)(C)C)c3ccccc3C=Cc3ccccc32)cc1
IC50 (HCT-116 [2]): 130 nM | Activity (HCT-116 [3]): 38.3%

COc1ccc(C2(SC[C@H](N)C(=O)NCCCCCCCCC(=O)N[C@H](C(=O)N3C[C@H](O)C[C@H]3C(=O)NCc3ccc(-c4scnc4C)cc3)C(C)(C)C)c3ccccc3C=Cc3ccccc32)cc1
IC50 (HCT-116 [2]): 262 nM | Activity (HCT-116 [3]): 18.3%

COc1ccc(C2(SC[C@H](N)C(=O)NCCCCCCCCCCNC(=O)COc3cccc4c3C(=O)N(C3CCC(=O)NC3=O)C4=O)c3ccccc3C=Cc3ccccc32)cc1 (stereo partly specified)
Activity [1]: 68.3% | IC50 (HCT-116 [2]): 31.6 nM

COc1ccc(C2(SC[C@H](N)C(=O)NCCCCNc3cccc4c3C(=O)N(C3CCC(=O)NC3=O)C4=O)c3ccccc3C=Cc3ccccc32)cc1 (stereo partly specified)
Activity [1]: 11.2% | IC50 (HCT-116 [2]): 247 nM

COc1ccc(C2(SC[C@H](N)C(=O)NCCCCCCCCNc3ccc4c(c3)C(=O)N(C3CCC(=O)NC3=O)C4=O)c3ccccc3C=Cc3ccccc32)cc1 (stereo partly specified)
Activity [1]: 54.3% | IC50 (HCT-116 [2]): 53.8 nM

COc1ccc(C2(SC[C@H](N)C(=O)NCCOCCNc3ccc4c(c3)C(=O)N(C3CCC(=O)NC3=O)C4=O)c3ccccc3C=Cc3ccccc32)cc1 (stereo partly specified)
Activity [1]: 25.7% | IC50 (HCT-116 [2]): 203 nM

COc1ccc(C2(SC[C@H](N)C(=O)NCCOCCNc3cccc4c3C(=O)N(C3CCC(=O)NC3=O)C4=O)c3ccccc3C=Cc3ccccc32)cc1 (stereo partly specified)
Activity [1]: 12.8% | IC50 (HCT-116 [2]): 366 nM

COc1ccc(C2(SC[C@H](N)C(=O)NCCCCCCNc3ccc4c(c3)C(=O)N(C3CCC(=O)NC3=O)C4=O)c3ccccc3C=Cc3ccccc32)cc1 (stereo partly specified)
Activity [1]: 35.6% | IC50 (HCT-116 [2]): 145 nM

COc1ccc(C2(SC[C@H](N)C(=O)NCCCCNc3ccc4c(c3)C(=O)N(C3CCC(=O)NC3=O)C4=O)c3ccccc3C=Cc3ccccc32)cc1 (stereo partly specified)
Activity [1]: 10.6% | IC50 (HCT-116 [2]): 360 nM

COc1ccc(C2(SC[C@H](N)C(=O)O)c3ccccc3C=Cc3ccccc32)cc1
Activity (HCT-116 [4]): 14.06% | viability at 0.1 µM (HCT-116 [5]): 30.7% | Activity (HCT-116 [6]): 21.03% | Activity [1]: 0% | IC50 (A549): 262 nM | Activity (HCT-116 [7]): 66.9% | Activity (HCT-116 [8]): 23.79% | IC50 (HCT-116 [2]): 8.5 nM | IC50 (MCF7): 17.5 nM | Activity (HCT-116 [9]): 12.07% | IC50 [10]: 27.6 nM | Activity (HCT-116 [11]): 31.49% | IC50 (MDA-MB-231): 12.1 nM

COc1ccc(C2(SC[C@H](N)C(=O)NCCCCCCNc3cccc4c3C(=O)N(C3CCC(=O)NC3=O)C4=O)c3ccccc3C=Cc3ccccc32)cc1 (stereo partly specified)
Activity [1]: 42.3% | IC50 (HCT-116 [2]): 93.4 nM

COc1ccc(C2(SC[C@H](N)C(=O)NCCCCCCCCNc3cccc4c3C(=O)N(C3CCC(=O)NC3=O)C4=O)c3ccccc3C=Cc3ccccc32)cc1 (stereo partly specified)
Activity [1]: 61.5% | IC50 (HCT-116 [2]): 40.8 nM

COc1ccc(C2(SC[C@H](N)C(=O)NCCCCCNC(=O)COc3cccc4c3C(=O)N(C3CCC(=O)NC3=O)C4=O)c3ccccc3C=Cc3ccccc32)cc1 (stereo partly specified)
Activity [1]: 46.6% | IC50 (HCT-116 [2]): 66.8 nM

COc1ccc(C2(SC[C@H](N)C(=O)NCCCNC(=O)COc3cccc4c3C(=O)N(C3CCC(=O)NC3=O)C4=O)c3ccccc3C=Cc3ccccc32)cc1 (stereo partly specified)
Activity [1]: 42.1% | IC50 (HCT-116 [2]): 96.9 nM

COc1ccc(C2(SC[C@H](N)C(=O)NCCOCCC(=O)N[C@H](C(=O)N3C[C@H](O)C[C@H]3C(=O)NCc3ccc(-c4scnc4C)cc3)C(C)(C)C)c3ccccc3C=Cc3ccccc32)cc1
IC50 (HCT-116 [2]): 110 nM | Activity (HCT-116 [3]): 42.2%

COc1ccc(C2(SC[C@H](N)C(=O)NCCCCNC(=O)COc3cccc4c3C(=O)N(C3CCC(=O)NC3=O)C4=O)c3ccccc3C=Cc3ccccc32)cc1 (stereo partly specified)
Activity [1]: 43.6% | IC50 (HCT-116 [2]): 83.7 nM

COc1ccc(C2(SC[C@H](N)C(=O)NCCOCCOCCNc3cccc4c3C(=O)N(C3CCC(=O)NC3=O)C4=O)c3ccccc3C=Cc3ccccc32)cc1 (stereo partly specified)
Activity [1]: 29.1% | IC50 (HCT-116 [2]): 184 nM

COc1ccc(C2(SC[C@H](N)C(=O)NCCOCCOCCOCCNc3cccc4c3C(=O)N(C3CCC(=O)NC3=O)C4=O)c3ccccc3C=Cc3ccccc32)cc1 (stereo partly specified)
Activity [1]: 43.5% | IC50 (HCT-116 [2]): 81.3 nM

COc1ccc(C2(SC[C@H](N)C(=O)NCCNC(=O)COc3cccc4c3C(=O)N(C3CCC(=O)NC3=O)C4=O)c3ccccc3C=Cc3ccccc32)cc1 (stereo partly specified)
Activity [1]: 18.5% | IC50 (HCT-116 [2]): 313 nM

Reference: ChEMBL document CHEMBL6096664, “Discovery of novel KSP-targeting PROTACs with potent antitumor effects in vitro and in vivo” (Eur J Med Chem, 2025)
